Test results reported in US7485434B2, “Method for screening compounds for those that modulate transducers of regulated CREB activity” (The Salk Institute for Biological Studies, priority 2005, dated 2009).

Assays:
[1] = system: gluconeogenic genes (PEPCK, PGC-1α, G6Pase); assay: Q-PCR of gluconeogenic gene expression in primary rat hepatocytes; assay type: cell-based; conditions: primary hepatocytes
Procedure: Specifically, FIG. 17A illustrates the effect of TORC2 on induction of gluconeogenic genes (PEPCK, PGC-1α, G6Pase) by FSK (10 μM, 2 hr) in cultured primary rat hepatocytes infected with TORC2 or control GFP adenovinus as indicated.
FIGS. 18A-18H illustrate that the induction of the AMP kinase family member SIK1 by CREB during fasting attenuates the gluconeogenic program. Specifically, FIG. 18A illustrates the time course of PEPCK gene expression in primary rat hepatocytes following exposure to FSK. mRNA levels were determined by Q-PCR analysis.
FIG. 18C illustrates the effect of CHX pretreatment on induction of gluconeogenic genes (PEPCK, PGC-1α, G6Pase) by glucagon in primary rat hepatocytes. Relative mRNA levels are shown.
FIG. 19B summarizes the effect of SIK1 RNAi on gluconeogenic gene expression in primary rat hepatocytes, presenting Q-PCR analysis showing the relative induction of PEPCK, PGC-1α, and G6Pase mRNAs by glucagon in cells infected with control (US) or SIK1 RNAi expressing adenoviruses.
FIG. 20D summarizes the effect of AlCAR on expression of gluconeogenic genes (PEPCK, PGC-1α) in primary rat hepatocytes. Cells infected with mutant Ser171Ala TORC2 (171) adenovinus indicated. Treatment with AICAR and FSK is shown.
Rat primary hepatocytes were prepared from 200-300g of Sprague-Dawley rats by collagenase perfusion method as described previously (see Koo et al., 2004). […]

[2] = system: TORC2; assay: TORC2 phosphorylation in primary rat hepatocytes (Western blot); assay type: cell-based; conditions: primary hepatocytes; AICAR 1 mM, in the presence of FSK, 30 minutes
Text: FIG. 18B illustrates the effect of CHX on levels of phospho (Ser171) TORC2 in primary rat hepatocytes treated with glucagon over a variety of time points, shown in hours. Western blot assay indicates the levels of TORC2, phospho (Ser171) TORC2 and CREB.
Specifically, FIG. 19A, top, presents a Western blot showing the effect of US and SIK1 RNAi adenoviruses on the levels of SIK1 protein in rat hepatocytes. FIG. 19A, bottom, presents a Western blot assay with nondiscriminating TORC2 antiserum, showing the effect of SIK1 RNAi adenovirus on TORC2 dephosphorylation (compare P-TORC2 and TORC2 bands) following exposure of primary rat hepatocytes to glucagon (Gluc). The arrow identifies phosphorylated TORC2.
Cells were exposed to AICAR and FSK for 30 minutes. Lower mobility bands (arrow) indicate phosphorylated TORC2 polypeptides.
Rat primary hepatocytes were prepared from 200-300g of Sprague-Dawley rats by collagenase perfusion method as described previously (see Koo et al., 2004). 1×10^6 cells were plated in 6 well plates with medium 199 (Invitrogen, Carlsbad, Calif.) supplemented by 10% FBS, 10 units/ml penicillin, 10 μg/ml streptomycin, and 10 nM dexamethasone for 3-6 hours. After attachment, cells were infected with adenoviruses for 16 hours. Subsequently, cells were maintained in medium 199 without FBS and dexamethasone for 24 hours (for cDNA expression adenoviruses) or 48 hours (for RNAi adenoviruses) and […] forskolin or 100 nM glucagon for 2 hours unless noted otherwise. For experiments with cycloheximide, 10 μg/ml cycloheximide was added 30 minutes prior to the addition of 100 nM glucagon.
Like other signaling pathways, cAMP stimulates gluconeogenic gene expression with burst-attenuation kinetics (see Sasaki et al., 1984). Following exposure of primary hepatocytes to Forskolin, PEPCK mRNA levels became maximal after 2 hours, returning to near baseline after 4 hours (see FIG. 18A). […] Consistent with this, CHX pre-treatment potentiated gluconeogenic gene expression in primary rat hepatocytes exposed to glucagon 2-3 fold (see FIG. 18C). […]

[3] = system: TORC2; assay: Cellular localization of TORC2 in primary rat hepatocytes; assay type: cell-based; conditions: wild-type or Ser171Ala TORC2
Procedure: FIG. 20C illustrate the effect of AICAR and SIK1 on cellular localization of wild-type or Ser171 Ala TORC2 in primary rat hepatocytes. Cells were infected with adenoviruses for HA-tagged wild-type or mutant TORC2 and SIK1 as indicated. Infected cells were exposed to FSK and AICAR for 30 minutes. TORC2 localization was examined with anti-HA antiserum. Cells were counterstained with DAP1 to visualize nuclei.
Based on its ability to promote Ser171 phosphorylation, AMPK might be expected to inhibit nuclear entry of TORC2 in cells exposed to FSK. […] Confirming the pivotal role of Ser171 in this regard, mutant Ser171Ala TORC2 remained constitutively nuclear under both conditions.

[4] = system: AMPK; conditions: cited from earlier work

NC(=O)c1ncn([C@@H]2O[C@H](CO)[C@@H](O)[C@H]2O)c1N [AICAR, 5-aminoimidazole-4-carboxamide riboside]
effect on induction of PEPCK and PGC-1α genes in response to FSK [1]: blocked induction of PEPCK and PGC-1α genes | phosphorylation of endogenous TORC2 [2]: triggered robust phosphorylation of endogenous TORC2 | effect on nuclear entry of TORC2 in cells exposed to FSK [3]: inhibited nuclear entry of wild-type, but not SerAla171 TORC2

CN(C)C(=N)N=C(N)N [metformin]
effect on AMPK [4]: activates AMPK
